PubChem BioAssay (NCI)
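Each compound was tested at five concentrations against cells in 96-well plates for 48 hours. At the GI50, growth is halved. TGI is the concentration that stops growth completely.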

Tests used:
Test in all cases: inhibition of tumour cell growth, NCI panel, 48 h
UACC-257 melanoma = tested on: UACC-257 melanoma
OVCAR-5 ovarian = tested on: OVCAR-5 ovarian
SK-MEL-28 melanoma = tested on: SK-MEL-28 melanoma
HOP-92 NSCLC = tested on: HOP-92 NSCLC
A498 renal = tested on: A498 renal
HS 578T breast = tested on: HS 578T breast
OVCAR-8 ovarian = tested on: OVCAR-8 ovarian
CCRF-CEM leukemia = tested on: CCRF-CEM leukemia
CAKI-1 renal = tested on: CAKI-1 renal
SF-539 CNS = tested on: SF-539 CNS
NCI-H460 lung = tested on: NCI-H460 lung
SNB-75 CNS = tested on: SNB-75 CNS
BT-549 breast = tested on: BT-549 breast
MDA-MB-231 breast = tested on: MDA-MB-231 breast
HCT-15 colon = tested on: HCT-15 colon
MCF7 breast = tested on: MCF7 breast
NCI-H23 lung = tested on: NCI-H23 lung
RPMI-8226 leukemia = tested on: RPMI-8226 leukemia
MOLT-4 leukemia = tested on: MOLT-4 leukemia
DU-145 prostate = tested on: DU-145 prostate
SW-620 colon = tested on: SW-620 colon
SN12C renal = tested on: SN12C renal
A549 NSCLC = tested on: A549 NSCLC
SK-MEL-5 melanoma = tested on: SK-MEL-5 melanoma
MALME-3M melanoma = tested on: MALME-3M melanoma
HCC-2998 colon = tested on: HCC-2998 colon
HOP-62 NSCLC = tested on: HOP-62 NSCLC
ACHN renal = tested on: ACHN renal
SK-MEL-2 melanoma = tested on: SK-MEL-2 melanoma
MDA-MB-468 breast = tested on: MDA-MB-468 breast
HL-60(TB) leukemia = tested on: HL-60(TB) leukemia
NCI-H226 lung = tested on: NCI-H226 lung
UO-31 renal = tested on: UO-31 renal
HT29 colon = tested on: HT29 colon
786-0 renal = tested on: 786-0 renal
M14 melanoma = tested on: M14 melanoma
NCI-H522 lung = tested on: NCI-H522 lung
KM12 colon = tested on: KM12 colon
COLO 205 colon = tested on: COLO 205 colon
RXF 393 renal = tested on: RXF 393 renal
T-47D breast = tested on: T-47D breast
U251 CNS = tested on: U251 CNS
SK-OV-3 ovarian = tested on: SK-OV-3 ovarian
SF-295 CNS = tested on: SF-295 CNS
SR leukemia = tested on: SR leukemia
TK-10 renal = tested on: TK-10 renal
IGROV1 ovarian = tested on: IGROV1 ovarian
OVCAR-3 ovarian = tested on: OVCAR-3 ovarian
SNB-19 CNS = tested on: SNB-19 CNS
MDA-MB-435 = tested on: MDA-MB-435
HCT-116 colon = tested on: HCT-116 colon
UACC-62 melanoma = tested on: UACC-62 melanoma
LOX IMVI melanoma = tested on: LOX IMVI melanoma
K-562 leukemia = tested on: K-562 leukemia
SF-268 CNS = tested on: SF-268 CNS
PC-3 prostate = tested on: PC-3 prostate
OVCAR-4 ovarian = tested on: OVCAR-4 ovarian
EKVX NSCLC = tested on: EKVX NSCLC

O=c1[nH]n(C(=S)N/N=C/c2ccccc2Cl)c(=O)c2ccccc12 showed a GI50 (UACC-257 melanoma) of 4.1 µM, a TGI (UACC-257 melanoma) of 16.8 µM and a GI50 (OVCAR-5 ovarian) of 3.56 µM. It also gave a TGI (OVCAR-5 ovarian) of 10.6 µM, a GI50 (SK-MEL-28 melanoma) of 4.6 µM and a TGI (SK-MEL-28 melanoma) of 16.1 µM. It also gave a GI50 (HOP-92 NSCLC) of 2.41 µM, a TGI (HOP-92 NSCLC) of 7.29 µM and a GI50 (A498 renal) of 3.66 µM. The TGI (A498 renal) was 12.1 µM, the GI50 (HS 578T breast) was 2.65 µM and the TGI (HS 578T breast) was 9.55 µM. It also gave a GI50 (OVCAR-8 ovarian) of 2.08 µM, a TGI (OVCAR-8 ovarian) of 5.48 µM and a GI50 (CCRF-CEM leukemia) of 2.29 µM. The TGI (CCRF-CEM leukemia) was 7.56 µM, the GI50 (CAKI-1 renal) was 3.7 µM and the TGI (CAKI-1 renal) was 15.5 µM. The GI50 (SF-539 CNS) was 2.56 µM, the TGI (SF-539 CNS) was 6.26 µM and the GI50 (NCI-H460 lung) was 2.11 µM. For the same molecule, the TGI (NCI-H460 lung) was 5.85 µM, the GI50 (SNB-75 CNS) was 2.08 µM and the TGI (SNB-75 CNS) was 8.43 µM. It also gave a GI50 (BT-549 breast) of 3.11 µM, a TGI (BT-549 breast) of 11.9 µM and a GI50 (MDA-MB-231 breast) of 2.99 µM. The TGI (MDA-MB-231 breast) was 8.61 µM, the GI50 (HCT-15 colon) was 2.24 µM and the TGI (HCT-15 colon) was 6.36 µM. It also gave a GI50 (MCF7 breast) of 2.4 µM, a TGI (MCF7 breast) of 11.3 µM and a GI50 (NCI-H23 lung) of 1.97 µM. For the same molecule, the TGI (NCI-H23 lung) was 4.56 µM, the GI50 (RPMI-8226 leukemia) was 2.44 µM and the TGI (RPMI-8226 leukemia) was 7.83 µM. It also gave a GI50 (MOLT-4 leukemia) of 1.82 µM, a TGI (MOLT-4 leukemia) of 5.16 µM and a GI50 (DU-145 prostate) of 3.84 µM. For the same molecule, the TGI (DU-145 prostate) was 14.5 µM, the GI50 (SW-620 colon) was 3.01 µM and the TGI (SW-620 colon) was 10.5 µM. The GI50 (SN12C renal) was 3.01 µM, the TGI (SN12C renal) was 10.1 µM and the GI50 (A549 NSCLC) was 2.93 µM. The TGI (A549 NSCLC) was 10.7 µM, the GI50 (SK-MEL-5 melanoma) was 3.03 µM and the TGI (SK-MEL-5 melanoma) was 11.9 µM. It also gave a GI50 (MALME-3M melanoma) of 5.64 µM, a TGI (MALME-3M melanoma) of 18.5 µM and a GI50 (HCC-2998 colon) of 2.27 µM. The TGI (HCC-2998 colon) was 4.79 µM, the GI50 (HOP-62 NSCLC) was 3.14 µM and the TGI (HOP-62 NSCLC) was 10.8 µM. The GI50 (ACHN renal) was 3.64 µM, the TGI (ACHN renal) was 12.8 µM and the GI50 (SK-MEL-2 melanoma) was 1.85 µM. For the same molecule, the TGI (SK-MEL-2 melanoma) was 4.19 µM, the GI50 (MDA-MB-468 breast) was 1.83 µM and the TGI (MDA-MB-468 breast) was 4.46 µM. It also gave a GI50 (HL-60(TB) leukemia) of 1.65 µM, a TGI (HL-60(TB) leukemia) of 4.5 µM and a GI50 (NCI-H226 lung) of 2.88 µM. The TGI (NCI-H226 lung) was 8.54 µM, the GI50 (UO-31 renal) was 3.78 µM and the TGI (UO-31 renal) was 15 µM. The GI50 (HT29 colon) was 3.96 µM, the TGI (HT29 colon) was 13.2 µM and the GI50 (786-0 renal) was 4.43 µM. The TGI (786-0 renal) was 16 µM, the GI50 (M14 melanoma) was 2.96 µM and the TGI (M14 melanoma) was 11.4 µM. For the same molecule, the GI50 (NCI-H522 lung) was 2.06 µM, the TGI (NCI-H522 lung) was 5.4 µM and the GI50 (KM12 colon) was 3.34 µM. The TGI (KM12 colon) was 12.5 µM, the GI50 (COLO 205 colon) was 2.82 µM and the TGI (COLO 205 colon) was 7.73 µM. It also gave a GI50 (RXF 393 renal) of 2.58 µM, a TGI (RXF 393 renal) of 7.71 µM and a GI50 (T-47D breast) of 2.55 µM. The TGI (T-47D breast) was 8.92 µM, the GI50 (U251 CNS) was 2.87 µM and the TGI (U251 CNS) was 10.4 µM. For the same molecule, the GI50 (SK-OV-3 ovarian) was 4.82 µM, the TGI (SK-OV-3 ovarian) was 16.1 µM and the GI50 (SF-295 CNS) was 2.48 µM. It also gave a TGI (SF-295 CNS) of 6.79 µM, a GI50 (SR leukemia) of 1.86 µM and a TGI (SR leukemia) of 5.08 µM. For the same molecule, the GI50 (TK-10 renal) was 5.05 µM, the TGI (TK-10 renal) was 17.3 µM and the GI50 (IGROV1 ovarian) was 3.42 µM. It also gave a TGI (IGROV1 ovarian) of 11.5 µM, a GI50 (OVCAR-3 ovarian) of 3.36 µM and a TGI (OVCAR-3 ovarian) of 12.8 µM. For the same molecule, the GI50 (SNB-19 CNS) was 3.87 µM, the TGI (SNB-19 CNS) was 14.3 µM and the GI50 (MDA-MB-435) was 2.88 µM. For the same molecule, the TGI (MDA-MB-435) was 12.8 µM, the GI50 (HCT-116 colon) was 3.44 µM and the TGI (HCT-116 colon) was 14.1 µM. The GI50 (UACC-62 melanoma) was 2.91 µM, the TGI (UACC-62 melanoma) was 12.4 µM and the GI50 (LOX IMVI melanoma) was 2.87 µM. For the same molecule, the TGI (LOX IMVI melanoma) was 10.4 µM, the GI50 (K-562 leukemia) was 2.62 µM and the TGI (K-562 leukemia) was 10.6 µM. It also gave a GI50 (SF-268 CNS) of 3.36 µM, a TGI (SF-268 CNS) of 13.8 µM and a GI50 (PC-3 prostate) of 4.89 µM. The TGI (PC-3 prostate) was 17.9 µM, the GI50 (OVCAR-4 ovarian) was 4.46 µM and the TGI (OVCAR-4 ovarian) was 16.6 µM. For the same molecule, the GI50 (EKVX NSCLC) was 2.73 µM and the TGI (EKVX NSCLC) was 10.8 µM.
